# Laboratory results as given in the supplement of paper PMC11851430, “Workflow for E3 Ligase Ligand Validation for PROTAC Development” (ACS Chemical Biology, 2025).
# Columns and labels:
# Test in all cases: apparent dissociation constant Kd app (Kinobeads competition, EC50 x correction factor)
# Details in all cases: lysate: Jurkat cell lysate
# [1] = target: NEK9 (UniProt Q8TD19)
# [2] = target: PHKG2 (UniProt P15735)
# [3] = target: TGFBR1 (UniProt P36897)
# [4] = target: ACVR1 (UniProt Q04771)
# [5] = target: AURKB (UniProt Q96GD4)
# [6] = target: CDK1 (UniProt P06493)
# [7] = target: MAP3K4 (UniProt Q9Y6R4)
# [8] = target: CDC42BPA (UniProt Q5VT25)
# [9] = target: ROCK1 (UniProt Q13464)
# [10] = target: PRKCA (UniProt P17252)
# [11] = target: FGFR1 (UniProt P11362)
# [12] = target: PAK4 (UniProt O96013)
# [13] = target: LATS1 (UniProt O95835)
# [14] = target: PRKD3 (UniProt O94806)
# [15] = target: TAOK2 (UniProt Q9UL54)
# [16] = target: CSK (UniProt P41240)
# [17] = target: MAP3K11 (UniProt Q16584)
# [18] = target: PKN1 (UniProt Q16512)
# [19] = target: ITK (UniProt Q08881)
# [20] = target: TAOK3 (UniProt Q9H2K8)
# [21] = target: PRKAA1 (UniProt Q13131)
# [22] = target: SRC (UniProt P12931)
# SRC, sequence (P12931 whole entry, looked up): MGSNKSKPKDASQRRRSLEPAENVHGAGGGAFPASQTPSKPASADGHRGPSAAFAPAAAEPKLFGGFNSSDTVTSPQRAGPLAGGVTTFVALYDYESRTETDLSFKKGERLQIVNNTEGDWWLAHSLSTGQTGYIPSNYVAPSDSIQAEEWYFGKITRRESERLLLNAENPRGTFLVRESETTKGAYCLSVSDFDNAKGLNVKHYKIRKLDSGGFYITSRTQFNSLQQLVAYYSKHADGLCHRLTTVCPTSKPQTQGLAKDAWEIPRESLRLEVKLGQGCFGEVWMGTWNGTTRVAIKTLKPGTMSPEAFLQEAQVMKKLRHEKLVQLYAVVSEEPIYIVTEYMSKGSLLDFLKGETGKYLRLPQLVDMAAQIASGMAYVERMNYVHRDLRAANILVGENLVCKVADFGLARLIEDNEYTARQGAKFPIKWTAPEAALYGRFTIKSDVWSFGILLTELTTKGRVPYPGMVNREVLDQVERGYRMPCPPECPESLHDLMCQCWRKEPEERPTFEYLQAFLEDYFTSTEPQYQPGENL
# ACVR1, sequence (Q04771 whole entry): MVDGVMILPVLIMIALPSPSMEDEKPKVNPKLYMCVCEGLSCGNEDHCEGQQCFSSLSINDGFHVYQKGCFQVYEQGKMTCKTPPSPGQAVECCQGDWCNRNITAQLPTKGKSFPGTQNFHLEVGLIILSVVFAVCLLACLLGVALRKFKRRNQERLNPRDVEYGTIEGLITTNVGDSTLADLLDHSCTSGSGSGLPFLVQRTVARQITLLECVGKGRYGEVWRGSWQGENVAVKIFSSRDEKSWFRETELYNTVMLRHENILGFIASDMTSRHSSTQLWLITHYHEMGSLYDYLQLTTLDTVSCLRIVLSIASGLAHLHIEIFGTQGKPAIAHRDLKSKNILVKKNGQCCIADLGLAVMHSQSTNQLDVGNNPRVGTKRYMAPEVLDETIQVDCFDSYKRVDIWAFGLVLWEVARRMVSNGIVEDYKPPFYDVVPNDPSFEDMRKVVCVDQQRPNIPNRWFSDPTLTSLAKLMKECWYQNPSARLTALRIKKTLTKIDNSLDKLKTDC
# PRKD3, sequence (O94806 whole entry): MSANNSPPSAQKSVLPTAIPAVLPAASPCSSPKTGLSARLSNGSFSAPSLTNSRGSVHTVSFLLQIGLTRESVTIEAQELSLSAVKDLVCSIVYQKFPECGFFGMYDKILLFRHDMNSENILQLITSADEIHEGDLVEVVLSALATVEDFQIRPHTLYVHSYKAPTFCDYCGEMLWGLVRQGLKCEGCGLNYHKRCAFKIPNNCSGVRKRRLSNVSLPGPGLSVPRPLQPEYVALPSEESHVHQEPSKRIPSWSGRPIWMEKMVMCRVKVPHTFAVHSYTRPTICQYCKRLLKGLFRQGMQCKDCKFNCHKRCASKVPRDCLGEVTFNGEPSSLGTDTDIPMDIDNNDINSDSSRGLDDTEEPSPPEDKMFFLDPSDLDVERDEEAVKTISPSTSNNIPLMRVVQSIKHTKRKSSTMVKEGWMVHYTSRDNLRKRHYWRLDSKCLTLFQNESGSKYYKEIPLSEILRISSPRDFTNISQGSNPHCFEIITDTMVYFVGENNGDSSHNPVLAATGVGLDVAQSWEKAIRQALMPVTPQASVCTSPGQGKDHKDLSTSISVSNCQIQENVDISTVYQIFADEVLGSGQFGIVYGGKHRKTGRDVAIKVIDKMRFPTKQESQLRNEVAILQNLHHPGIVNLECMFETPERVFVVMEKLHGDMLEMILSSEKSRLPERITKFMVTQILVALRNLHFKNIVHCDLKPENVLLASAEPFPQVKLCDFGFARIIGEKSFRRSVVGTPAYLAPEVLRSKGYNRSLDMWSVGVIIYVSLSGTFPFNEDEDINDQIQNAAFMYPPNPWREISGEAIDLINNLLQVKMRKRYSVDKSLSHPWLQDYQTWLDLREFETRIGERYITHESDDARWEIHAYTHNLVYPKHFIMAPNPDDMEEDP
# ROCK1, sequence (Q13464 whole entry, looked up): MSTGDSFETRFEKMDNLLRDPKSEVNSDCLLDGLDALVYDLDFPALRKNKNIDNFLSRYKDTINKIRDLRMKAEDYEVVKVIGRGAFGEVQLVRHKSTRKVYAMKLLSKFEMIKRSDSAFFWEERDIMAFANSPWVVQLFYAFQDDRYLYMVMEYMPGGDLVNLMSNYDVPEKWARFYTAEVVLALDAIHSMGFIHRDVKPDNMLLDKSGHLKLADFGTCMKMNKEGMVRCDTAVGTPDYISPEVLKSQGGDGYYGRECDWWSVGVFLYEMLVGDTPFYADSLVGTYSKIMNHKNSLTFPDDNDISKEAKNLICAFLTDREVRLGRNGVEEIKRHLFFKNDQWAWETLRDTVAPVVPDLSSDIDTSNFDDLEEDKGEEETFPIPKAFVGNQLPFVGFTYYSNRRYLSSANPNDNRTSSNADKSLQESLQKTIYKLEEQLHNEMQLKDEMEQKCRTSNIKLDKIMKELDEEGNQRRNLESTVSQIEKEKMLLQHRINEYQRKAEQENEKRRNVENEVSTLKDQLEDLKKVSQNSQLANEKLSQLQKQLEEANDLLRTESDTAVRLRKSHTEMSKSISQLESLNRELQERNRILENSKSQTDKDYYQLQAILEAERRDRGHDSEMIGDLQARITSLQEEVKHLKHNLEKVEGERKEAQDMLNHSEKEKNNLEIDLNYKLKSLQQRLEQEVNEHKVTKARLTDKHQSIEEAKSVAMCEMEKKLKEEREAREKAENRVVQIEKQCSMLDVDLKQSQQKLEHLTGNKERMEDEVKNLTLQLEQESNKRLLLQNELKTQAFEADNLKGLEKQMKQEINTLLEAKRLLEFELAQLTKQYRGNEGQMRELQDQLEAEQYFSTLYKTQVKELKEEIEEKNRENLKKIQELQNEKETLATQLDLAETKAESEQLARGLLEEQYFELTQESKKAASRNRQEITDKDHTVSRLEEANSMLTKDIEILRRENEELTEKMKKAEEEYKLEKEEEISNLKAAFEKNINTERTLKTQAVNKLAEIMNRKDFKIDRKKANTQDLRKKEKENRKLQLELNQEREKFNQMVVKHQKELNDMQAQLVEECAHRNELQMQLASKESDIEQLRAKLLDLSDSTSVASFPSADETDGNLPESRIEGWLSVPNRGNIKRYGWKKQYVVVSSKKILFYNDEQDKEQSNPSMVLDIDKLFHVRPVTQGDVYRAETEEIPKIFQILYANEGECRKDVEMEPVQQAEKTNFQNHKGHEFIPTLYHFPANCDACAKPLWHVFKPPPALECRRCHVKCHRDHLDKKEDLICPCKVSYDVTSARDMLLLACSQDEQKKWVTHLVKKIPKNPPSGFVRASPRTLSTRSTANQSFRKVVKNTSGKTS
# MAP3K11, sequence (Q16584 whole entry, looked up): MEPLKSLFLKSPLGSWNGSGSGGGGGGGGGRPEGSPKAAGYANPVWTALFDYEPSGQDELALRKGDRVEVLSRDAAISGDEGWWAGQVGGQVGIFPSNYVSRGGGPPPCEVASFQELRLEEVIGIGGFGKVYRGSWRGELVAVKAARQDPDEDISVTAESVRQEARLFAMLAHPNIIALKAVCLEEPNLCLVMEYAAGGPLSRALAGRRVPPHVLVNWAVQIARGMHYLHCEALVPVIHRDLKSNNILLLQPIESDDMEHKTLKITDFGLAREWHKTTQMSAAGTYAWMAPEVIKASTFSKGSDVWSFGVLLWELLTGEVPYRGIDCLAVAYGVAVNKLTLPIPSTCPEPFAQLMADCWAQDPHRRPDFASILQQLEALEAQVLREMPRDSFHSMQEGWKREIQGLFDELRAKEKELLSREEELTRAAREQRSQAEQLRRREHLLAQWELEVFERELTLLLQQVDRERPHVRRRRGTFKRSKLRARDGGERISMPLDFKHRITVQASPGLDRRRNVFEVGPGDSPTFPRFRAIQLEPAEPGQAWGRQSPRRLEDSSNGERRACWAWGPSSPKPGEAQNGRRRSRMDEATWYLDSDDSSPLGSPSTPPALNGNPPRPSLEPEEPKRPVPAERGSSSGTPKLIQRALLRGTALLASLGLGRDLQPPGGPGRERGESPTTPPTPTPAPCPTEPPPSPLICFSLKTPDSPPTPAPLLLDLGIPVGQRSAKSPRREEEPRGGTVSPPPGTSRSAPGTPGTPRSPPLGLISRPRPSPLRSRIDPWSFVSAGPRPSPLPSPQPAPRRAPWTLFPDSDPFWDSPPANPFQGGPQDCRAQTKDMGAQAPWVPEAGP
# PKN1, sequence (Q16512 whole entry, looked up): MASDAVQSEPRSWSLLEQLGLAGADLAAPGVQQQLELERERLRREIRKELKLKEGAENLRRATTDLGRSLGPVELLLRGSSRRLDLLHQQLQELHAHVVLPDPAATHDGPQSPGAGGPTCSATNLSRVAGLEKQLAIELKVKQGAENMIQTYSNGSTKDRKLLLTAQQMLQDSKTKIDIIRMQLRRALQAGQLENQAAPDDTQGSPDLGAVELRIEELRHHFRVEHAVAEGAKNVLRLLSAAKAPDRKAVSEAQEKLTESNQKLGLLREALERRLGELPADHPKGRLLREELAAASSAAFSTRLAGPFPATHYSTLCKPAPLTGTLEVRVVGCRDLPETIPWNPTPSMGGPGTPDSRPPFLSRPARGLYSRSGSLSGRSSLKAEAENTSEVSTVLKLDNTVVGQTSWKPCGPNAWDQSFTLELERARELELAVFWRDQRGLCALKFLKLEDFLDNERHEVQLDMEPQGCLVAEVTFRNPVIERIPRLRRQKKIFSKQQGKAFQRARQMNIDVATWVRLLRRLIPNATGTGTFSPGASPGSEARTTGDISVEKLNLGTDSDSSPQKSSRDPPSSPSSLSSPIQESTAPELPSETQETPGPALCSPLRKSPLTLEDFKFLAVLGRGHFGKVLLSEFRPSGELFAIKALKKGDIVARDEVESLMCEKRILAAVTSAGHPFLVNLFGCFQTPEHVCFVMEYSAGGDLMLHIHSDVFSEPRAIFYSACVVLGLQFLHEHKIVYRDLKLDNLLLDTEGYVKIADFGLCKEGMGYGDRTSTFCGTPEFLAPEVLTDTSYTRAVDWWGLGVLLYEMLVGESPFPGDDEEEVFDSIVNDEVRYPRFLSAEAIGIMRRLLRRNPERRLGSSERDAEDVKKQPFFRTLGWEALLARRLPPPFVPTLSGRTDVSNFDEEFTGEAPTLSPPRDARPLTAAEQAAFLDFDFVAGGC
compound,measurement,setting,value
NC(=O)c1ccccc1Nc1nc(Nc2ccc(N3CCNCC3)cc2)ncc1Cl,Kd,[1],0.0962 µM
same,Kd,[2],1.15 µM
same,Kd,[3],1.37 µM
same,Kd,[4],1.27 µM
same,Kd,[5],0.0356 µM
same,Kd,[6],1.91 µM
same,Kd,[7],0.09 µM
same,Kd,[8],1.32 µM
same,Kd,[9],2 µM
same,Kd,[10],0.966 µM
same,Kd,[11],0.144 µM
same,Kd,[12],0.424 µM
same,Kd,[13],0.0489 µM
same,Kd,[14],0.255 µM
same,Kd,[15],0.558 µM
same,Kd,[16],2.17 µM
same,Kd,[17],0.231 µM
same,Kd,[18],1.52 µM
same,Kd,[19],0.0386 µM
same,Kd,[20],0.879 µM
same,Kd,[21],0.083 µM
same,Kd,[22],0.808 µM
